# US11497813B2, “Bortezomib conjugates and methods using same” (Frank EBETINO et al., priority 2015, dated 2022)
# Columns and labels:
# UPS activation = test: Ub^G76V-GFP reporter cells (GFP+ cells) in osteoclast cultures and on pre-incubated bone slices; assay type: cell-based, mouse; conditions: for GFP+ cells on pre-incubated bone slices: BM cells from Ub^G76V-GFP mice on bone slices pre-incubated with compound
# Description: FIG. 5A is a scheme of an exemplary synthesis of compound BP-Btz1. FIG. 5B is a series of images of bone slices pre-incubated with 1 μM BP-Btz1, Btz, or bisphosphonate (BP) overnight. Drug solutions were removed and bone slices were washed with PBS extensively. […] (BM) cells from UB^G76V-GFP mice were cultured on bone slices in the presence of M-CSF and RANKL for 9 days. Top images (a): GFP^+ cells were observed under a fluorescence microscope and GFP signal intensity was quantified. Middle images (b): bone slices were fixed and subjected to TRAP staining for osteoclasts (OCs). OC #/slice were counted. Bottom images (c): cells were removed from slices. Toluidine blue staining was performed and pit areas/slice were counted. FIG. 5C is a series of images of murine BM cells cultured and stained for ALP. FIG. 5D is a series of images of human MSCs cultured and stained for ALP. Murine BM cells and human MSCs were cultured in the OB-inducing medium plus different concentrations of BP-Btz1 or Btz for 4 or 6 days, respectively. Cells were stained for ALP. The ALP^+ areas were measured by Image J. *P<0.05 vs. Btz-treated cells.
# 1. Ub^G76V-GFP mice in B6 background (Stock #008111, Jax lab) are generated using previously described methods (Lindsten et al., 2003, Nat. Biotech. 21:897-902). The Ub^G76V-GFP transgene was designed with a chicken beta-actin promoter and CMV immediate early enhancer upstream of a GFP fused to a mutant ubiquitin moiety (Ub^G76V), a constitutively active proteasome degradation signal. Following proteasome inhibitor administration, Ub^G76V accumulates and GFP fluorescence is readily apparent. GFP^+ OCs were detected at 4 and 8 hrs after adding Btz to OC cultures, which disappeared at 24 hrs. […] 2. OC formation and resorption assays and data analyses are performed as described herein (FIG. 4) and using previously described methods (Zhang et al., 2014, J. Clin. Invest. 124:3200-3214; Xiu et al., 2014, J. Clin. Invest. 124:297-310). […] The number and area of OCs and resorption pits are assessed. The appearance, intensity and distribution of GFP^+ cells on bone slices and plastic surrounding bone slices during OC formation is observed and recorded. 3. OB differentiation. Third passages of BM stromal cells are used as MPCs, as previously described (Shu et al., 2013, J. Bone Min. Res. 28:1925-1935; Zhang et al., 2014, J. Clin. Invest. 124:3200-3214). MPCs are cultured on plastic plates in OB-inducing medium±BP-Btz conjugates, Btz or BP (0.1-100 nM) for 1-3 wks. Plates are subjected to alkaline phosphatase (ALP) and alizarin red staining, and qPCR analyses. Area of ALP^+ and mineralized bone nodule, and the expression levels of OB marker genes (ALP, osteocalcin, Runx2) are measured. GFP^+ cells during OB differentiation are observed as in OCs. In a parallel experiment, human MSCs (from Lonza) are treated with BP-Btz, Btz, or BP in OB-inducing medium and their effects examined on OB differentiation as show in FIGS. 5C and 5D. 4. Western blot/Ub assays. OCPs or MPCs are treated with a preferred dose of leading BP-Btz, Btz and BP. OCP lysates are subjected to Western blot using α-NF-κB members and TRAF6 Abs. OB lysates are subjected to Western blot with α-ubiquitin, Runx2, or JunB Abs, and Ub assays using UbiQapture matrix (Biomol) to pull down Ub-proteins followed by α-Runx2 and JunB Abs using previously described methods (Zhao et al., 2010, J. Bone Min. Res. 25:1246-1256; Zhao et al., 2011, Stem cells 29:1601-1610).
# [1] = system: bone resorption and formation; test: In vivo dose-response experiments on bone resorption and formation
# Excerpt: In vitro testing is also used to examine analogues of BP-Btz1.
# WT mice = test: Bone volume and osteoblast differentiation in WT mice; assay type: in vivo, mouse
# OVX mice = test: OVX-induced bone loss in C57/B6 mice; assay type: in vivo, mouse
# Description: Ovariectomy was carried out in 10-week-old female C57/B6 mice.
# Histomorphometry (FIG. 20A) and biomechanical testing (FIG. 20B) were also done. These experiments were done using C57/B6 mice, 10 w, treatment at 4 w post-OVX for 4 w.
# fractured aged mice = test: Tibial fracture healing in aged (20-m-old) mice; assay type: in vivo, mouse
# Description: 20-m-old B6 mice had tibial fractures and were given Btz (0.6 mg/kg body weight, i.p.) or saline (Ctl) at day 1, 3, and 5 post-fracture 3 times. FIG. 8A is a graph depicting callus volumes for mice subjected to μCT at day 28. FIG. 8B is a graph depicting experimental data from mice subjected to bio-mechanical testing at day 28. FIG. 8C is a graph depicting experimental data of mice sacrificed for histological analyses at day 28. Values are the mean of 6 mice. *P<0.05 vs. saline-treated mice. FIG. 8D is a graph of data from 3-m-old (young) and 20-m-old (aged) mice after tibial fracture surgery and sacrificed at day 14 post-fracture. The % of CD45^−CD105^+Sca-1^+ cells in fracture callus were determined by flow cytometry as depicted in FIG. 7B. Values are the mean of 4 mice. *P<0.05 vs. saline-treated aged mice. #P<0.05 vs. young mice.
# [2] = OVX C57/B6 mice, treatment at 4 w post-OVX for 4 w
compound,measurement,setting,value
CC(C)C[C@H](NC(=O)[C@H](Cc1ccccc1)NC(=O)c1cnccn1)B1OCCN(CCOC(=O)NC(P(=O)(O)O)P(=O)(O)O)CCO1 [BP-Btz1],GFP+ cells on pre-incubated bone slices,UPS activation,present
same,bone resorption,[1],inhibits bone resorption
same,bone formation,[1]; compared with Btz alone,stimulates formation at doses lower than effective doses of Btz alone
same,bone volume,"WT mice; WT mice, FIG. 17",increases bone volume
same,osteoblast differentiation,"WT mice; WT mice, FIG. 17",increases
same,bone mass,OVX mice; [2],increases bone mass and strength in OVX mice as effectively as Btz
same,bone strength,OVX mice; [2],increases bone mass and strength in OVX mice as effectively as Btz
same,OVX-induced bone loss,OVX mice; OVX mice,reduces OVX-induced bone loss
same,osteoblast differentiation,OVX mice; OVX mice,more potently promotes osteoblast differentiation
same,CFU-ALP colony formation,OVX mice; cells from OVX mice,increases CFU-ALP colony formation
same,CFU-F colony formation,OVX mice; cells from OVX mice,increases CFU-F colony formation
"CC(C)C[C@H](NC(=O)[C@H](Cc1ccccc1)NC(=O)c1cnccn1)B(O)O [Btz, [(1R)-3-methyl-1-[[(2S)-1-oxo-3-phenyl-2[(pyrazinylcarbonyl)amino]propyl]amino]butyl] boronic acid]",GFP+ OCs after adding compound to OC cultures,UPS activation; 4 and 8 hrs,detected
same,GFP+ OCs after adding compound to OC cultures,UPS activation; 24 hrs,disappeared
same,GFP+ cells on pre-incubated bone slices,UPS activation,not
same,fracture repair,"fractured aged mice; 20-m-old B6 mice, 0.6 mg/kg i.p. day 1, 3, 5",promotes fracture repair
same,MPCs,fractured aged mice; fractured aged mice,increased
same,bone strength,fractured aged mice; fractured aged mice,increased
same,callus formation,fractured aged mice; fractured aged mice,increased
same,bone volume,"WT mice; 3-m-old mice, 0.6 mg/kg/i.p. at day 1, 3, 5, read at day 10",increased bone volume
